In US5464861A, “2-thioindoles (selenoindoles) and related disulfides (selenides) which inhibit protein tyrosine kinases and which have antitumor properties” (Warner-Lambert, priority 1993, dated 1995):
pIC50: −log10 of the molar value. Like-named read-outs stand apart in the source and are kept apart here.

Key:
[1] = target: T1, epidermal growth factor receptor tyrosine kinase (Homo sapiens, UniProt P00533); assay: EGF receptor tyrosine kinase assay (P^32 incorporation in GAT); type: biochemical; details: for inhibition at 100 µM: EGRF-R, read-out: % Inhibition at 100 μM (EGFR TK)
T1 construct: A native 170,000 epidermal growth factor receptor-kinase complex from shed plasma membrane vesicles; endogenous in cells
In short: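 Receptor pre-activated with 150 ng EGF for 10 min at room temperature. ATP with or without compound then added and incubated 10 min at room temperature.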

[2] = target: T2, human PDGF β receptor intracellular tyrosine kinase domain (Homo sapiens, UniProt P09619); assay: PDGF receptor tyrosine kinase inhibition assay (P^32 incorporation in Glu-Tyr); type: biochemical; details: for inhibition at 100 µM: read-out: % Inhibition at 100 μM (PDGFR TK); for pIC50: Table 2, PDGF-R, IC50 entries, read-out: IC50 (PDGFR TK)
T2 construct: human PDGF β receptor intracellular tyrosine kinase domain; made in house; host or cells: SF9 insect cells, recombinant baculovirus; cell lysates used
Procedure: Recombinant baculovirus containing human PDGF β receptor intracellular tyrosine kinase domain was used to infect SF9 cells to overexpress the protein, and cell lysates were used for the assay. The ability of the tyrosine kinase to phosphorylate glutamate tyrosine substrate in the presence of P^32 -ATP and inhibitor was measured by counting the incorporation of P^32 in Glu-Tyr in TCAprecipitable material.

[3] = tested on: Swiss 3T3 mouse fibroblasts; assay: Growth inhibition assay, Swiss 3T3 fibroblasts; type: cell-based
Procedure: Swiss 3T3 mouse fibroblasts were maintained in dMEM/F12 media containing 10% fetal calf serum. […] The cells were grown at 37° C. under 5% CO2 for 72 hours and then counted by Coulter counter. The data were expressed as the concentration of inhibitor necessary to decrease the growth rate by 50%.

[4] = Table 2, EGRF-R, IC50 entries, read-out: IC50 (EGFR TK)
[5] = Swiss-3T3, 72 h, read-out: IC50 growth inhibition
[6] = Swiss 3T3, 72 hours, Table 2, read-out: IC50 growth inhibition

T1 sequence (P00533 25-1210): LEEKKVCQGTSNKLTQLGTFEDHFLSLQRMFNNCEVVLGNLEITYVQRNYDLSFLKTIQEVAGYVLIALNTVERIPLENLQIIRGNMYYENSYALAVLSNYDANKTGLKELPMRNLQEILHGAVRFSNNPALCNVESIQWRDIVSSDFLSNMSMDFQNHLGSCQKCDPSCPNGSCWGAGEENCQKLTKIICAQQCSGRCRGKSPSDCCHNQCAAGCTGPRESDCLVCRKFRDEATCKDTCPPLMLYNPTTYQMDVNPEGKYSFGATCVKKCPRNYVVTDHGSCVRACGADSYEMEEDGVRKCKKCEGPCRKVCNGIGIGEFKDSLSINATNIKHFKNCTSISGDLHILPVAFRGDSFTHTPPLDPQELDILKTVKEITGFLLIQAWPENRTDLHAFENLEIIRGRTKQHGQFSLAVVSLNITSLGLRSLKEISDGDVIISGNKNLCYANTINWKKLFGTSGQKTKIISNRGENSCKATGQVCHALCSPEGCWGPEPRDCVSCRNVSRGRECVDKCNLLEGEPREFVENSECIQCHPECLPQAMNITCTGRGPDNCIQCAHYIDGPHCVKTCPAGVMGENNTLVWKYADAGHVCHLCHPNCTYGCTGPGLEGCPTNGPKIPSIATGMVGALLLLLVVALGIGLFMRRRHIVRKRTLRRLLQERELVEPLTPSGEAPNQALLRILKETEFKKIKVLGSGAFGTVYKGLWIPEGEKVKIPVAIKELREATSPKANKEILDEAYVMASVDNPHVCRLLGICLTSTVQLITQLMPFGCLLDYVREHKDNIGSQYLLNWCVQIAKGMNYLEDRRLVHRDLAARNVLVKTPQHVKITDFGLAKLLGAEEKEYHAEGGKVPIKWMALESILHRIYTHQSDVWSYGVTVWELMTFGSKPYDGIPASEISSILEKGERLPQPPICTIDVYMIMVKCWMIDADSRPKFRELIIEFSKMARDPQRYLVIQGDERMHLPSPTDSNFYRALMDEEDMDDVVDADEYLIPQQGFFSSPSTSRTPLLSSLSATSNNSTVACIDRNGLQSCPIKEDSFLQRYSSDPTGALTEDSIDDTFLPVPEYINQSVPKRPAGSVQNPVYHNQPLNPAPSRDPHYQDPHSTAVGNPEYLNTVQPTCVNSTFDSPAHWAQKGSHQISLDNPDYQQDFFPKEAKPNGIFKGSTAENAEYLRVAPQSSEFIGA
T1 sequence (P01133 971-1023 partner limits assumed): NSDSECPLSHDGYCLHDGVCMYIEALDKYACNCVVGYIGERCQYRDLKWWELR
T2 sequence (P09619 554-1106 limits assumed): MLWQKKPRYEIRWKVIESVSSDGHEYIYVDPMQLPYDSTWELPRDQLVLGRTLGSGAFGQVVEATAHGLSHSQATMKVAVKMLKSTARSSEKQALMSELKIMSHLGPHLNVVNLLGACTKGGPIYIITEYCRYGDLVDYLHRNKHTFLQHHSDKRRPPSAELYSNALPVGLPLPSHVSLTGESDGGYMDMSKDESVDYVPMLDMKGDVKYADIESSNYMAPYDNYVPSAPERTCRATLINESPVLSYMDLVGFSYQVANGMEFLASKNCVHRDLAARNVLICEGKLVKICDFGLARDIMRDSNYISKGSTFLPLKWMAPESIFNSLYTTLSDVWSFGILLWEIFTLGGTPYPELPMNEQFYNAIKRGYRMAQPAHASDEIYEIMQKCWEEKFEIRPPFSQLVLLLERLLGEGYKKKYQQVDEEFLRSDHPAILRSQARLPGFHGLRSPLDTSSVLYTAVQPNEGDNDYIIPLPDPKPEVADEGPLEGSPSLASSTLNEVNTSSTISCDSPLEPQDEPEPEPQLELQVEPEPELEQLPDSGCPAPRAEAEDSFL

| Structure (SMILES) | pIC50 [1, 4] | inhibition at 100 µM ([2]; at 100 μM, PDGF-R) [%] | inhibition at 100 µM [1] [%] | pIC50 [3, 6] | other results |
| --- | --- | --- | --- | --- | --- |
| NC(Cc1c(SSc2[nH]c3ccccc3c2CC(N)C(=O)NCc2ccccc2)[nH]c2ccccc12)C(=O)NCc1ccccc1 (racemic) [Compound 62, 2,2'-dithiobis[α-amino-N-benzyl-3-(3-indolyl)propanamide]] | 5.22 | 71 | – | – | pIC50 [3, 5]: 5.28 |
| O=C(O)CCC1C(=S)Nc2ccccc21 (stereo not shown) [Compound 7, 3-(2-thioxo-3-indolinyl)propanoic acid] | 5.89 | – | – | 4.03 | – |
| COC(=O)CCC1C(=S)Nc2ccccc21 (stereo not shown) [Compound 9, methyl 3-(2-thioxo-3-indolinyl)propanoate] | – | – | 52 | 4.80 | – |
| CCOC(=O)CCC1C(=S)Nc2ccccc21 (stereo not shown) [Compound 10, ethyl 3-(2-thioxo-3-indolinyl) propanoate] | – | – | 10 | 4.47 | – |
| CCOC(=O)Cc1c(SSc2c(CC(=O)OCC)c3ccccc3n2C)n(C)c2ccccc12 [Compound 33, bis[ethyl 1-methylindolyl-3-acetate-(2)]disulfide] | 4.41 | 16.7 | – | – | pIC50 [3, 5]: 5.52 |
| COC(=O)CCc1c(SSc2c(CCC(=O)OC)c3ccccc3n2C)n(C)c2ccccc12 [Compound 40, 2,2'-dithiobis[methyl 3-(1-methyl-3-indolyl)propanoate]] | – | – | 16.3 | 5.28 | – |
| COC(=O)CCCc1c(SSc2c(CCCC(=O)OC)c3ccccc3n2C)n(C)c2ccccc12 [Compound 68, bis[methyl 1-methylindolyl-3-butanoate-(2)]disulfide] | – | – | 14 | 5.74 | – |
| CCn1c(SSc2c(C(=O)Nc3ccccc3)c3ccccc3n2CC)c(C(=O)Nc2ccccc2)c2ccccc21 [Compound 71, bis[N-phenyl 1-ethylindolyl-3-carboxamide-(2)]disulfide] | – | – | 20 | – | inhibition at 100 µM [2]: 5%; pIC50 [3, 5]: 4.28 |
| Cn1c(SSc2c(C(=O)Nc3ccccc3)c3cc(Cl)ccc3n2C)c(C(=O)Nc2ccccc2)c2cc(Cl)ccc21 [Compound 73, bis[N-phenyl 5-chloro-1-methylindolyl-3-carboxamide-(2)]disulfide] | 5.37 | 21 | – | 5.03 | – |
| Cc1cccc2c1c(C(=O)Nc1ccccc1)c(SSc1c(C(=O)Nc3ccccc3)c3c(C)cccc3n1C)n2C [Compound 75, bis[N-phenyl 1,4-dimethylindolyl-3-carboxamide-(2)]disulfide] | – | 3 | 6 | 5.40 | – |
| Cc1ccc2c(c1)c(C(=O)Nc1ccccc1)c(SSc1c(C(=O)Nc3ccccc3)c3cc(C)ccc3n1C)n2C [Compound 76, bis [N-phenyl 1,5-dimethylindolyl-3-carboxamide-(2)] disulfide] | – | 19 | 7 | 4.66 | – |
| COc1cccc2c1c(C(=O)Nc1ccccc1)c(SSc1c(C(=O)Nc3ccccc3)c3c(OC)cccc3n1C)n2C [Compound 79, bis [N-phenyl 4-methoxy-1-methyl indolyl-3-carboxamide-(2)]disulfide] | – | 20 | 11 | 5.72 | – |
| COc1ccc2c(C(=O)Nc3ccccc3)c(SSc3c(C(=O)Nc4ccccc4)c4ccc(OC)cc4n3C)n(C)c2c1 [Compound 81, bis[N-phenyl 6-methoxy-1-methylindolyl-3-carboxamide-(2)]disulfide] | 5.44 | 2 | – | 4.77 | – |
| COc1cccc2c(C(=O)Nc3ccccc3)c(SSc3c(C(=O)Nc4ccccc4)c4cccc(OC)c4n3C)n(C)c12 [Compound 82, bis[N-phenyl 7-methoxy-1-methylindolyl-3-carboxamide-(2)]disulfide] | 5.19 | – | – | 4.62 | – |
| Cn1c(SSc2c(C(=O)Nc3ccccc3)c3cccnc3n2C)c(C(=O)Nc2ccccc2)c2cccnc21 [Compound 83, 2,2'-dithiobis [N-phenyl-1-methyl-7-azaindolyl-3-carboxamide]] | 4.65 | 57 | – | 5.00 | – |
| CNC(=O)c1c(SSc2c(C(=O)NC)c3ccccc3n2C)n(C)c2ccccc12 [Compound 97, bis[N-methyl 1-methylindolyl-3-carboxamide-(2)]disulfide] | 5.00 | – | – | 5.74 | pIC50 [2]: 4.55 |
| Cc1c(SSc2c(C)c3ccccc3n2C)n(C)c2ccccc12 [Compound 103] | – | – | 7 | – | pIC50 [3, 5]: 5.42 |
| Cn1c(SSc2c(C(=O)Nc3ccncc3)c3ccccc3n2C)c(C(=O)Nc2ccncc2)c2ccccc21 [Compound 116, 2,2'-dithiobis[N-(4-pyridyl)-1-methylindolyl-3-carboxamide]] | – | – | 4 | – | pIC50 [2]: 5.10 |
| Cn1c(SSc2c(C(=O)Nc3cccnc3)c3ccccc3n2C)c(C(=O)Nc2cccnc2)c2ccccc21 [Compound 117, 2,2'-dithiobis [N-(3-pyridyl) 1-methylindolyl-3-carboxamide]] | – | – | 25 | – | pIC50 [2]: 5.38 |
| Cn1c(SSc2c(C(N)=O)c3ccccc3n2C)c(C(N)=O)c2ccccc21 [Compound 118, 2,2'-dithiobis[1-methylindolyl-3-carboxamide]] | 5.33 | 78 | – | – | – |
| CN(C)C(=O)c1c(SSc2c(C(=O)N(C)C)c3ccccc3n2C)n(C)c2ccccc12 [Compound 119, 2,2'-dithiobis[N,N-dimethyl-1-methylindolyl-3-carboxamide]] | 4.67 | 73 | – | – | – |
| CNC(=O)c1c([Se][Se]c2c(C(=O)NC)c3ccccc3n2C)n(C)c2ccccc12 [Compound 131, 2,2'-diselenobis [N,1-dimethyl-1H -indole-3-carboxamide]] | – | – | – | – | pIC50 [1]: 5.24; pIC50 [3, 5]: 5.26 |
| CCN(CC)CCNC(=O)c1c([Se][Se]c2c(C(=O)NCCN(CC)CC)c3ccccc3n2C)n(C)c2ccccc12 [Compound 132, 2,2'-diselenobis [N-[2-(diethylamino)ethyl]-1-methyl-1H-indole-3-carboxamide]] | – | – | – | – | pIC50 ([1]; read-out: IC50 (EGFR TK)): 5.33; pIC50 [3, 5]: 4.70 |
| CNC(=O)c1c([Se][Se]c2[nH]c3ccccc3c2C(=O)NC)[nH]c2ccccc12 [Compound 133, 2,2'-diselenobis[N-methyl-1H-indole-3-carboxamide]] | – | – | – | – | pIC50 ([1]; read-out: IC50 (EGFR TK)): 4.89; pIC50 [3, 5]: > 5.30 |
| CCN(CC)CCNC(=O)c1c([Se][Se]c2[nH]c3ccccc3c2C(=O)NCCN(CC)CC)[nH]c2ccccc12 [Compound 134, 2,2'-diselenobis [N-[2-(diethylamino)ethyl]-1H-indole-3-carboxamide]] | – | – | – | – | pIC50 [3, 5]: 5.10 |

Further lines, with some results ahead:

| pIC50 [1, 4] | inhibition at 100 µM ([2]; at 100 μM, PDGF-R) [%] | inhibition at 100 µM [1] [%] | Structure (SMILES) | pIC50 [3, 6] | other results |
| --- | --- | --- | --- | --- | --- |
| 4.75 | – | – | COC(=O)Cc1c(SSc2[nH]c3ccccc3c2CC(=O)OC)[nH]c2ccccc12 [Compound 27, bis[methylindolyl-3-acetate-(2)]disulfide] | 5.64 | – |
| 5.08 | – | – | O=C(O)Cc1c(SSc2[nH]c3ccccc3c2CC(=O)O)[nH]c2ccccc12 [Compound 29, bis[indolyl-3-acetic acid-(2)] disulfide] | 4.00 to 4.60 | – |
| 5.03 | – | – | O=C(O)Cc1c(SSSc2[nH]c3ccccc3c2CC(=O)O)[nH]c2ccccc12 [Compound 30, bis[indolyl-3-acetic acid-(2)]trisulfide] | 5.10 | – |
| 4.45 | – | – | COC(=O)Cc1c(SSSc2[nH]c3ccccc3c2CC(=O)OC)[nH]c2ccccc12 [Compound 31, bis[methylindolyl-3-acetate-(2)]trisulfide] | 6.00 | – |
| 4.46 | 4.7 | – | Cn1c(SSc2c(CC(=O)O)c3ccccc3n2C)c(CC(=O)O)c2ccccc21 [Compound 32, bis[1-methylindolyl-3-acetic acid-(2)]-disulfide] | 4.44 | – |
| 4.42 | 12.8 | – | O=C(Cc1c(SSc2[nH]c3ccccc3c2CC(=O)NCc2ccccc2)[nH]c2ccccc12)NCc1ccccc1 [Compound 34, 2,2'-dithiobis[N-benzyl 2-(3-indolyl)acetamide]] | 5.57 | – |
| 5.32 | – | – | O=C(O)CCc1c(SSc2[nH]c3ccccc3c2CCC(=O)O)[nH]c2ccccc12 [Compound 36, bis[indolyl-3-propanoic acid-(2)]disulfide] | 4.23 | – |
| – | – | 36.5 | CCOC(=O)CCc1c(SSc2[nH]c3ccccc3c2CCC(=O)OCC)[nH]c2ccccc12 [Compound 38, bis[ethylindolyl-3-propanoate-(2)] disulfide] | 5.80 | – |
| 4.69 | – | – | COC(=O)CCc1c(SSc2[nH]c3ccccc3c2CCC(=O)OC)[nH]c2ccccc12 [Compound 39] | 5.13 | – |
| 5.08 | – | – | Cc1ccc2[nH]c(SSc3[nH]c4ccc(C)cc4c3CCC(=O)O)c(CCC(=O)O)c2c1 [Compound 41, bis[5-methylindolyl-3-propanoic acid-(2)]disulfide] | < 4.60 | – |
| – | 5 | 16.6 | CCOC(=O)CCc1c(SSc2[nH]c3cc(C)ccc3c2CCC(=O)OCC)[nH]c2cc(C)ccc12 [Compound 44, bis[ethyl 6-methylindolyl-3-propanoate-(2)] disulfide] | 5.62 | – |
| – | – | 11.4 | CCOC(=O)CCc1c(SSc2[nH]c3c(C)cccc3c2CCC(=O)OCC)[nH]c2c(C)cccc12 [Compound 46, bis[ethyl 7-methylindolyl-3-propanoate-(2)] disulfide] | 5.57 | – |
| 6.07 | – | – | O=C(CCc1c(SSc2[nH]c3ccccc3c2CCC(=O)NCc2ccccc2)[nH]c2ccccc12)NCc1ccccc1 [Compound 47] | 5.22 | – |
